Publication PMC8242589, “Cardiac Safety of Kinase Inhibitors – Improving Understanding and Prediction of Liabilities in Drug Discovery Using Human Stem Cell-Derived Models” (Frontiers in Cardiovascular Medicine, 2021)
“And” between values parts separate entries of the source, which are not always exact repeats. Identical values can stand only once. “Also recorded” adds a separate entry of the source.

Assays:
ROCK1 = settings: ref [36] (RKI-1447), [37], [38] (Fasudil), [39]–[43] (Y-27632), [44], [45] (GSK-429286); read-out: Target IC50 ROCK1; cited from earlier work
[1] = tested on: hSC-CMs (Cor.4U Cardiomyocytes); assay: CardioExcyte 96 impedance and EFP recording (beating rate, base impedance); format: cell-based, human; settings: for activity at 0.3 µM / activity at 3 µM / activity at 30 µM / activity at 300 µM: Homo sapiens, Cardiomyocyte; for activity at 0.3 µM / activity at 3 µM / activity at 30 µM / activity at 300 µM / BR / Base Imp: vs baseline before drug (taken as 100%)
Description: Cor.4U® Cardiomyocytes (Ncardia, Netherlands) were cultured in 96-well plates at density of 25,000 – 30,000 cells per well. Cells were maintained at 5% CO2 and 37 °C for 4 days prior to experiments.
Functional monitoring of cardiomyocytes was done using CardioExcyte® 96 (Nanion technologies GmbH, Germany). Extracellular field potential (EFP) and impedance signals were recorded from hSC-CMs that formed monolayers in the wells of the NSP-96 plate. Beating Rate (BR, per minute) was calculated as the reciprocal of the inter-spike interval (ISI) in EFP signal. Impedance signals from spontaneously beating hSC-CMs were recorded with a sampling rate of 1 ms (1 kHz), and EFP data were collected at 0.1ms (10 kHz). Data acquisition was controlled by CardioExcyte® 96 Control software as previously described ([22]). The functional parameters recorded in each concentration of test items were compared to the base line values before drug addition (taken as 100%) to define fractional change.

[2] = tested on: hSC-CMs (Cor.4U Cardiomyocytes); assay: Apoptosis assay (CellEvent Caspase-3/7 Green, IncuCyte ZOOM kinetics over 24 h); format: cell-based, human; parameters: key to Caspase / Caspase MEAN: % of time-matched vehicle control (green object area)
Description: Cor.4U® Cardiomyocytes ([…], Netherlands) were cultured in 96-well plates at density of 25,000 - 30,000 cells per well. Cells were maintained at 5% CO2 and 37 °C for 4 days prior to experiments. […] The plates were incubated 2 h before compound treatment in the IncuCyte ZOOM (ESSEN BioScience, Ann Arbor, Michigan) to set a baseline before the 24 h compound treatment. […] Imaging was done using 10x microscope objective of the IncuCyteZOOM with four images per well-taken every 2 h in both phase-contrast and green fluorescence. The fluorescent nuclear signal of the apoptotic cells was separated from background with the integrated object counting algorithm, adjusted to cardiomyocytes, and the calculated total green object area per well (μm^2/well) plotted against time. Data were normalized to those of the time-matched vehicle control. Data were representative of at least three replicates per concentration.

[3] = tested on: hSC-CMs (Cor.4U Cardiomyocytes); assay: ATP assay (CellTiter-Glo Luminescent Cell Viability Assay); format: cell-based, human; settings: for viability at 0.3 µM / viability at 3 µM / viability at 30 µM / viability at 300 µM: Homo sapiens, Cardiomyocyte; for viability at 0.3 µM / viability at 3 µM / viability at 30 µM / viability at 300 µM / ATP: normalized to time-matched DMSO control
Description: Cor.4U® Cardiomyocytes (Ncardia, Netherlands) were cultured in 96-well plates at density of 25,000 – 30,000 cells per well. Cells were maintained at 5% CO2 and 37 °C for 4 days prior to experiments. The cell culture medium (Cor4U® Complete Culture Medium, cat# Ax-M-HC250E, Axiogenesis AG, Cologne, Germany) was changed every 24 h and was replaced by serum-free BMCC medium (cat# Ax-M-BMCC259, Axiogenesis AG, Cologne, Germany) 12 h prior to drug addition.
The CellTiter-Glo Luminescent Cell Viability Assay (cat# G7572, Promega, USA) was performed for quantification of the cellular ATP concentration according to manufacturer's instructions. Plates were shaken for 2 min in the dark, incubated at ambient temperature for 10 min before measuring luminescence (Integration time 0.1 seconds per well) with Luminescence Counter (Synergy H1, BioTek Instruments, Inc., Winooski, Vermont). The measured ATP concentration values were normalized to the time-matched DMSO controls. Data are representative of at least three replicates per concentration.

PI3K p110β = settings: ref [23]–[25] (NVP-BEZ235), [27] (LY 294002), [28] (GDC-0941), [32] (TGX-221), [33] (CAL-101), [35] (CZC24832); read-out: Target IC50 p110β; cited from earlier work

Compound: O=S(=O)(c1cccc2cnccc12)N1CCCNCC1 [Fasudil]
- activity at 0.3 µM ([1]; 0.3 µM, 2h, read-out: BR): 100%
- activity at 0.3 µM ([1]; 0.3 µM, 2h, read-out: Base Imp): 87%
- activity at 0.3 µM ([1]; 0.3 µM, 24h, read-out: BR): 97%
- activity at 0.3 µM ([1]; 0.3 µM, 24h, read-out: Base Imp): 87%
- activity at 3 µM ([1]; 3 µM, 2h, read-out: BR): 97%
- activity at 3 µM ([1]; 3 µM, 2h, read-out: Base Imp): 86%
- activity at 3 µM ([1]; 3 µM, 24h, read-out: BR): 100%
- activity at 3 µM ([1]; 3 µM, 24h, read-out: Base Imp): 85%
- activity at 30 µM ([1]; 2h, read-out: BR): 96%
- activity at 30 µM ([1]; 2h, read-out: Base Imp): 82%
- activity at 30 µM ([1]; 24h, read-out: BR): 94%
- activity at 30 µM ([1]; 24h, read-out: Base Imp): 71%
- activity at 300 µM ([1]; 2h, read-out: BR): 70%
- activity at 300 µM ([1]; 2h, read-out: Base Imp): 65%
- activity at 300 µM ([1]; 24h, read-out: BR): 110%
- activity at 300 µM ([1]; 24h, read-out: Base Imp): 44%
- Effect on base impedance, in words ([1]; hSC-CMs, 2 and 24 h): concentration-and time-dependent decrease in base impedance; also recorded: concentration-dependent effects
- Inhibition of beating rate ([1]; highest test concentration, after 2 h of incubation): ~ 30%
- activity at 0.3 µM ([2]; Homo sapiens, Cardiomyocyte, 0.3 µM, 2h, normalized to time-matched vehicle control): 136%
- activity at 0.3 µM ([2]; Homo sapiens, Cardiomyocyte, 0.3 µM, 24h, normalized to time-matched vehicle control): 80%
- activity at 3 µM ([2]; Homo sapiens, Cardiomyocyte, 3 µM, 2h, normalized to time-matched vehicle control): 119%
- activity at 3 µM ([2]; Homo sapiens, Cardiomyocyte, 3 µM, 24h, normalized to time-matched vehicle control): 83%
- activity at 30 µM ([2]; Homo sapiens, Cardiomyocyte, 2h, normalized to time-matched vehicle control): 107%
- activity at 30 µM ([2]; Homo sapiens, Cardiomyocyte, 24h, normalized to time-matched vehicle control): 138%
- activity at 300 µM ([2]; Homo sapiens, Cardiomyocyte, 300 µM, 2h, normalized to time-matched vehicle control): 97%
- Time of notable raise in the caspase-3/7 activity ([2]; highest test concentrations only): 12 to 18 h
- viability at 0.3 µM ([3]; 0.3 µM, 2h): 87%
- viability at 0.3 µM ([3]; 0.3 µM, 24h): 96%
- viability at 3 µM ([3]; 3 µM, 2h): 91%
- viability at 3 µM ([3]; 3 µM, 24h): 102%
- viability at 30 µM ([3]; 2h): 97%
- viability at 30 µM ([3]; 24h): 100%
- viability at 300 µM ([3]; 2h): 101%
- viability at 300 µM ([3]; 24h): 91%
- Reduction in the ATP content ([3]; top concentration): 9%

Compound: Cc1cc(C(C)Nc2ccccc2)c2nc(N3CCOCC3)cc(=O)n2c1 (centres unmarked) [TGX-221]
- Effect on hSC-CMs function (base impedance and beating rate), in words [1]: did not have any effect
- BR ([1]; 0.1 µM, 2h): 98
- Base Imp ([1]; 0.1 µM, 2h): 107
- BR ([1]; 0.1 µM, 24h): 94
- Base Imp ([1]; 0.1 µM, 24h): 106
- BR ([1]; 0.3 µM, 2h): 93
- Base Imp ([1]; 0.3 µM, 2h): 104
- BR ([1]; 0.3 µM, 24h): 91
- Base Imp ([1]; 0.3 µM, 24h): 100
- BR ([1]; 1 µM, 2h): 94
- Base Imp ([1]; 1 µM, 2h): 98
- BR ([1]; 1 µM, 24h): 95
- Base Imp ([1]; 1 µM, 24h): 97
- BR ([1]; 3 µM, 2h): 95
- Base Imp ([1]; 3 µM, 2h): 97
- BR ([1]; 3 µM, 24h): 89
- Base Imp ([1]; 3 µM, 24h): 98
- Change in the hSC-CMs parameters (surface plots: beating rate, base impedance, ATP) ([1]; hSC-CMs, 2 and 24 h): below 20%
- Apoptosis (caspase-3/7 activation), result in words [2]: no effect
- Caspase ([2]; 0.1 µM, 2h, normalized to time-matched vehicle control): 104
- Caspase ([2]; 0.1 µM, 24h, normalized to time-matched vehicle control): 87
- Caspase ([2]; 0.3 µM, 2h, normalized to time-matched vehicle control): 112
- Caspase ([2]; 0.3 µM, 24h, normalized to time-matched vehicle control): 95
- Caspase ([2]; 1 µM, 2h, normalized to time-matched vehicle control): 87
- Caspase ([2]; 1 µM, 24h, normalized to time-matched vehicle control): 92 and 92.1743
- Caspase ([2]; 3 µM, 2h, normalized to time-matched vehicle control): 124
- Caspase ([2]; 3 µM, 24h, normalized to time-matched vehicle control): 111 and 110.619
- ATP ([3]; 0.1 µM, 2h): 105
- ATP ([3]; 0.1 µM, 24h): 95
- ATP ([3]; 0.3 µM, 2h): 100
- ATP ([3]; 0.3 µM, 24h): 96
- ATP ([3]; 1 µM, 2h): 97
- ATP ([3]; 1 µM, 24h): 97
- ATP ([3]; 3 µM, 2h): 104
- ATP ([3]; 3 µM, 24h): 104
- Effect on ATP level, in words ([3]; hSC-CMs, up to the highest test concentrations): did not have any effect
- IC50 (PI3K p110β): 5 nM
